Read-outs that look alike come from different tables or passages of the source.
Experiments:
PBMCs = experiment: LPS-induced IL-8 release in PBMC cells (assay b); assay type: cell-based, human; details: LPS-stimulated PBMCs, read-out: IC50 Values for Inhibition of Cytokine Release, PBMCs IL-8
Method: Peripheral blood mononuclear cells (PBMCs) from healthy subjects are separated from whole blood using a density gradient (Lymphoprep, Axis-Shield Healthcare). The PBMCs are seeded in 96 well plates and treated with compounds at the desired concentration for 2 hours before addition of 1 ng/mL LPS (Escherichia Coli 0111:B4 from Sigma Aldrich) for 24 hours under normal tissue culture conditions (37° C., 5% CO2). The supernatant is harvested for determination of IL-8 and TNFα concentrations by sandwich ELISA (Duo-set, R&D systems) and read on the fluorescence microplate reader (Varioskan® Flash, ThermoFisher Scientific). The concentration at 50% inhibition (IC50) of IL-8 and TNFα production is calculated from the dose response curve.

GSK 3α = GSK 3α (Homo sapiens (Human), UniProt P49840); experiment: GSK 3α enzyme inhibition (FRET, Z-LYTE, Method 2); assay type: biochemical; details: read-out: IC50 Values for Enzyme Inhibition, GSK3α
Method: The enzyme inhibitory activities of compounds disclosed herein are determined by FRET using synthetic peptides labelled with both donor and acceptor fluorophores (Z-LYTE, Invitrogen Ltd., Paisley, UK).
The following two assay variants can be used for determination of GSK 3α inhibition.
The inhibitory activities of compounds of the invention against the GSK 3α enzyme isoform (Invitrogen), are evaluated by determining the level of activation/phosphorylation of the target peptide. The GSK3-α protein (500 ng/mL, 2.5 μL) is mixed with the test compound (2.5 μL at either 4 μg/mL, 0.4 μg/mL, 0.04 μg/mL, or 0.004 μg/mL) for 2 hr at RT. The FRET peptide (8 μM, 2.5 μL), which is a phosphorylation target for GSK3α, and ATP (40 μM, 2.5 μL) are then added to the enzyme/compound mixture and the resulting mixture incubated for 1 hr. Development reagent (protease, 5 μL) is added for 1 hr prior to detection in a fluorescence microplate reader (Varioskan® Flash, ThermoFisher Scientific).
In all cases, the site-specific protease cleaves non-phosphorylated peptide only and eliminates the FRET signal. Phosphorylation levels of each reaction are calculated using the ratio of coumarin emission (donor) over fluorescein emission (acceptor), for which high ratios indicate high phosphorylation and low ratios indicate low phosphorylation levels. The percentage inhibition of each reaction is calculated relative to non-inhibited control and the 50% inhibitory concentration (IC50 value) is then calculated from the concentration-response curve.
This method follows the same steps as Method 1 above, but utilises a shorter period of mixing of the test compound (105 minutes instead of 2 hours) with the GSK3-α protein.

Chain of GSK 3α (P49840 whole entry): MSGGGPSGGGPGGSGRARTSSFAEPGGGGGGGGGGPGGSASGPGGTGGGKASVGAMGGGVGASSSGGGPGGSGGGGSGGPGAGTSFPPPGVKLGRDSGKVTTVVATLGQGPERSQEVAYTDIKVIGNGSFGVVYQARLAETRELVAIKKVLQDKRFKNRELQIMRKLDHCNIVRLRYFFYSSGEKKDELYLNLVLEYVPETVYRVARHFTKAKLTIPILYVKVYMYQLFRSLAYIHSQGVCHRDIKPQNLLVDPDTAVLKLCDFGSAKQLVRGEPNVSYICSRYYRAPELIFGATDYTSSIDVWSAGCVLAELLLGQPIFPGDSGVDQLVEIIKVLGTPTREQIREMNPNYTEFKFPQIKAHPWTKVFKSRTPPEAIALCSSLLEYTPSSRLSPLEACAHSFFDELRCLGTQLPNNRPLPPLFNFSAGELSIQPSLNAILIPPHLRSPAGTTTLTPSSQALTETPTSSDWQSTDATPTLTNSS

Row | Compound | IC50 (GSK 3α) [nM] | IC50 (PBMCs) [nM] | IC50 (PBMCs; Homo sapiens, PBMC) [nM]
1 | COc1ccccc1Nc1nccc(Oc2ccc(NC(=O)Nc3cc(C(C)(C)C)cc(P(C)(C)=O)c3OC)c3ccccc23)n1 [15(f), 1-(5-(tert-butyl)-3-(dimethylphosphoryl)-2-methoxyphenyl)-3-(4-((2-((2-methoxy-phenyl)amino)pyrimidin-4-yl)oxy)naphthalen-1-yl)urea] | 3100 | 26.2 | 
2 | COc1c(NC(=O)Nc2ccc(Oc3ccnc(Nc4ccccc4)n3)c3ccccc23)cc(C(C)(C)C)cc1[S+](C)[O-] (centres unmarked) [15(k), 1-(5-(tert-butyl)-2-methoxy-3-(methylsulfinyl)phenyl)-3-(4-((2-(phenylamino)pyrimidin-4-yl)oxy)naphthalen-1-yl)urea] | 1170 |  | 5.6
3 | COc1c(NC(=O)Nc2ccc(Oc3ccnc(Nc4ccccc4)n3)c3ccccc23)cc(C(C)(C)C)cc1S(C)(=O)=O [15(l), 1-(5-(tert-butyl)-2-methoxy-3-(methylsulfonyl)phenyl)-3-(4-((2-(phenylamino)pyrimidin-4-yl)oxy)naphthalen-1-yl)urea] | 8220 |  | 17.5
4 | COc1c(CS(C)(=O)=O)cc(C(C)(C)C)cc1NC(=O)Nc1ccc(Oc2ccnc(Nc3ccccc3)n2)c2ccccc12 [15(n), 1-(5-(tert-butyl)-2-methoxy-3-((methylsulfonyl)methyl)phenyl)-3-(4-((2-(phenylamino)-pyrimidin-4-yl)oxy)naphthalen-1-yl)urea] | 1640 |  | 13.5
5 | COc1c(NC(=O)Nc2ccc(Oc3ccnc(Nc4ccccn4)n3)c3ccccc23)cc(C(C)(C)C)cc1P(C)(C)=O [15(o), 1-(5-(tert-butyl)-3-(dimethylphosphoryl)-2-methoxyphenyl)-3-(4-((2-(pyridin-2-ylamino)pyrimidin-4-yl)oxy)naphthalen-1-yl)urea] | 5800 |  | 20.4
6 | COc1c(NC(=O)Nc2ccc(Oc3ccnc(Nc4cnn(C)c4)n3)c3ccccc23)cc(C(C)(C)C)cc1P(C)(C)=O [15(s), 1-(5-(tert-butyl)-3-(dimethylphosphoryl)-2-methoxyphenyl)-3-(4-((2-((1-methyl-1H-pyrazol-4-yl)amino)pyrimidin-4-yl)oxy)naphthalen-1-yl)urea] | 239 |  | 1.4
7 | COc1c(NC(=O)Nc2ccc(Oc3ccnc(Nc4ccc5c(c4)NC(=O)C5)n3)c3ccccc23)cc(C(C)(C)C)cc1P(C)(C)=O [15(v), 1-(5-(tert-butyl)-3-(dimethylphosphoryl)-2-methoxyphenyl)-3-(4-((2-((2-oxoindolin-6-yl)amino)pyrimidin-4-yl)oxy)naphthalen-1-yl)urea] | 302 |  | 2.8
8 | COc1c(NC(=O)Nc2ccc(Oc3ccnc(Nc4ccc5c(c4)OCCO5)n3)c3ccccc23)cc(C(C)(C)C)cc1P(C)(C)=O [15(w), 1-(5-(tert-butyl)-3-(dimethylphosphoryl)-2-methoxyphenyl)-3-(4-((2-((2,3-dihydrobenzo[b][1,4]dioxin-6-yl)amino)pyrimidin-4-yl)oxy)naphthalen-1-yl)urea] | 1670 |  | 10.5
9 | COc1c(NC(=O)Nc2ccc(Oc3ccnc(Nc4ccc5c(c4)CS(=O)(=O)C5)n3)c3ccccc23)cc(C(C)(C)C)cc1P(C)(C)=O [15(y), 1-(5-(tert-butyl)-3-(dimethylphosphoryl)-2-methoxyphenyl)-3-(4-((2-((2,2-dioxido-1,3-dihydrobenzo[c]thiophen-5-yl)amino)pyrimidin-4-yl)oxy)naphthalen-1-yl)urea] | 194 |  | 0.9
10 | COc1cc(Nc2cc(Oc3ccc(NC(=O)Nc4cc(C(C)(C)C)cc(CC(N)=O)c4OC)c4ccccc34)ccn2)cc(P(C)(C)=O)c1 [38(ae), 2-(5-(tert-Butyl)-3-(3-(4-((2-((3-(dimethylphosphoryl)-5-methoxyphenyl)amino)pyridin-4-yl)oxy)naphthalen-1-yl)ureido)-2-methoxyphenyl)acetamide] | 800 |  | 1.2

Second part, led by results:

Row | IC50 (GSK 3α) [nM] | Compound | IC50 (PBMCs) [nM] | IC50 (PBMCs; Homo sapiens, PBMC) [nM]
11 | 779 | COc1ccc(Nc2nccc(Oc3ccc(NC(=O)Nc4cc(C(C)(C)C)cc(P(C)(C)=O)c4OC)c4ccccc34)n2)cc1 [15(h), 1-(5-(tert-butyl)-3-(dimethylphosphoryl)-2-methoxyphenyl)-3-(4-((2-((4-methoxy-phenyl)amino)pyrimidin-4-yl)oxy)naphthalen-1-yl)urea] |  | 4.6
12 | 359 | COc1ccc(Nc2nccc(Oc3ccc(NC(=O)Nc4cc(C(C)(C)C)cc(P(C)(C)=O)c4OC)c4ccccc34)n2)cc1OC [15(i), 1-(5-(tert-butyl)-3-(dimethylphosphoryl)-2-methoxyphenyl)-3-(4-((2-((3,4-dimethoxyphenyl)amino)pyrimidin-4-yl)oxy)naphthalen-1-yl)urea] |  | 1.5
13 | 1950 | COc1c(NC(=O)Nc2ccc(Oc3ccnc(Nc4ccccc4)n3)c3ccccc23)cc(C(C)(C)C)cc1C(=O)NCCN1CCOCC1 [15(p), 5-(tert-butyl)-2-methoxy-N-(2-morpholinoethyl)-3-(3-(4-((2-(phenylamino)pyrimidin-4-yl)oxy)naphthalen-1-yl)ureido)benzamide] |  | 9.4
14 | 188 | COc1c(NC(=O)Nc2ccc(Oc3ccnc(Nc4cncnc4)n3)c3ccccc23)cc(C(C)(C)C)cc1P(C)(C)=O [15(r), 1-(5-(tert-butyl)-3-(dimethylphosphoryl)-2-methoxyphenyl)-3-(4-((2-(pyrimidin-5-ylamino)pyrimidin-4-yl)oxy)naphthalen-1-yl)urea] |  | 4.8
15 | 283 | COc1c(NC(=O)Nc2ccc(Oc3ccnc(Nc4cccc(OS(C)(=O)=O)c4)n3)c3ccccc23)cc(C(C)(C)C)cc1P(C)(C)=O [15(t), 3-((4-((4-(3-(5-(tert-butyl)-3-(dimethylphosphoryl)-2-methoxyphenyl)ureido)-naphthalen-1-yl)oxy)pyrimidin-24)amino)phenyl methanesulfonate] |  | 0.5
16 | 3060 | COc1c(NC(=O)Nc2ccc(Oc3ccnc(Nc4ccccc4)n3)c3ccccc23)cc(C(C)(C)C)cc1C(=O)NCCN1CCCC1 [15(u), 5-(tert-butyl)-2-methoxy-3-(3-(4-((2-(phenylamino)pyrimidin-4-yl)oxy)naphthalen-1-yl)ureido)-N-(2-(pyrrolidin-1-yl)ethyl)benzamide] |  | 7.9
17 | 1500 | COc1c(NC(=O)Nc2ccc(Oc3ccnc(Nc4cnoc4)n3)c3ccccc23)cc(C(C)(C)C)cc1P(C)(C)=O [15(z), 1-(5-(tert-butyl)-3-(dimethylphosphoryl)-2-methoxyphenyl)-3-(4-((2-(isoxazol-4-ylamino)pyrimidin-4-yl)oxy)naphthalen-1-yl)urea] |  | 36.1
18 | 8290 | COc1c(CN(C)C(C)=O)cc(C(C)(C)C)cc1NC(=O)Nc1ccc(Oc2ccnc(Nc3ccccc3)c2)c2ccccc12 [38(aa), N-(5-(tert-Butyl)-2-methoxy-3-(3-(4-((2-(phenylamino)pyridin-4-yl)oxy)naphthalen-1-yl)ureido)benzyl)-N-methylacetamide] |  | 2.5
19 | 834 | COc1cc(Nc2cc(Oc3ccc(NC(=O)Nc4cc(C(C)(C)C)cc(CNC(C)=O)c4OC)c4ccccc34)ccn2)cc(C(N)=O)c1 [38(ac), 3-((4-((4-(3-(3-(Acetamidomethyl)-5-(tert-butyl)-2-methoxyphenyl)ureido)naphthalen-1-yl)oxy)pyridin-2-yl)amino)-5-methoxybenzamide] |  | 0.4

From patent US9890185B2, “Urea derivatives useful as kinase inhibitors” (Respivert Limited, priority 2013, dated 2018)
